This is an account of results in US20110166194A1, “Asenapine Prodrugs” (Alkermes, Inc., priority 2010, published 2011).

Data set [1] can be described thus: Pharmacokinetic evaluation of asenapine and asenapine prodrugs in rats. It counts as in vivo, Sprague-Dawley rats. Conditions: rat plasma, 10 mg/rat IM, suspension in 1% HPMC in PBS saline with 0.2% Tween pH 6.0; FIG. 3. Here is the method: Animals: 18 Male Sprague-Dawley rats (Charles River Laboratories, Wilmington, Mass.) were used in the study. Three groups of 6 rats were used and are referred to in this study as Groups A, B and C. Rats were approximately 350-375 g at time of arrival. Rats are housed 2 per cage with ad libitum chow and water. Environmental conditions in the housing room: 64-67° F., 30% to 70% relative humidity, and 12:12-h light:dark cycle. All experiments were approved by the institutional animal care and use committee.
Test Compounds: The following formulations of Asenapine parent drug and prodrug compounds of the invention were used in the study.
Pharmacokinetics study: Rats were dosed IM by means of a 23 gauge, 1 in. needle with 1 cc syringe 0.3 mL suspension was withdrawn from the vial containing the test compound. The rat was injected in the muscles of the hind limb after anesthesia with isoflourane. Blood samples were collected via a lateral tail vein after brief anesthesia with Isoflurane. A 27½G needle and 1 cc syringe without an anticoagulant was used for the blood collection. […]
Data Analysis: Drug concentrations in plasma samples were analyzed by liquid chromatography—mass spectroscopy using appropriate parameters for each compound. Half-life, volume of distribution, clearance, maximal concentration, and AUC were calculated by using WinNonlin version 5.2 software (Pharsight, St. Louis, Mo.).

The subject of data set [2] is serotonergic (5-HT2A, 5-HT2C, 5-HT6, 5-HTS), noradrenergic (α2A, α2B, α2C) and dopaminergic (D3, D4) receptors. Conditions: background; cited from earlier work.
Data set [3] has as its system muscarinic receptors. Conditions: background; cited from earlier work.
Data set [4] in a line: Solution stability of asenapine prodrugs as a function of pH. It is filed as physicochemical. To be noted: 0.01M buffers pH 2.11-9.01, 25° C., HPLC after 1, 4, 10 and 24 hours; FIG. 1 and 2. Here is the method: The asenapine derived prodrugs were prepared at approximately 300 ug/mL in buffers (see table of buffers below). The initial ratio of prodrug/parent was measured using a freshly prepared solution in unbuffered water. Acetonitrile was titrated into all samples as needed to ensure the complete dissolution of the compounds. The amount of acetonitrile varied depending on the solubility of each compound (see Note 1). 1.5 mL of each stability sample was transferred into a HPLC vial and the vials were maintained at 25° C. in the temperature controlled sample compartment of the HPLC. Each sample was assayed by HPLC after 1, 4, 10, and 24 hours for prodrug and asenapine content (see Note 2).
The fraction of prodrug remaining at each time point was calculated as;
Fraction Prodrug=(HPLC Area of Prodrug)/(HPLC area of prodrug+asenapine) (see Note 3).
The loss of prodrug was then fit to the equation for first order decay:
Fraction Prodrug=(Initial Fraction prodrug)*e^−kt
where t=time (in hours) and k is the rate constant for decay. Finally, the half-lives are were calculated as
Note 1: The acetonitrile concentration is not expected to have a large impact on the degradation rate since the rate follows first order decay with respect to compound (ie, the rate constant is independent of the concentration). […]

As for `CCC(C)(C)C(=O)OC[N+]1(C)CC2c3ccccc3Oc3ccc(Cl)cc3C2C1.[I-]` (stereo not shown) [ASN-83, Asenapine dimethyl butyrate prodrug], in data set [1], the Cmax entry is “lower than the Cmax of the parent Asenapine formulation as well as lower than that of the Asenapine palmitate prodrug (ASN-76)”. Take `CN1CC2c3ccccc3Oc3ccc(Cl)cc3C2C1` (stereo not shown) [Asenapine]: in data set [2], the “Affinity relative to D2 receptors” value was “higher affinity”. Besides, the Affinity result in data set [3] is “minimal affinity”. In the case of `CC(C)(C)C(=O)OC[N+]1(C)CC2c3ccccc3Oc3ccc(Cl)cc3C2C1.[Cl-]` (stereo not shown) [asenapine pivalate], the “Solution stability (loss of prodrug to asenapine)” value in data set [4] is recorded as “more stable than the asenapine octanoate”.
